Results: PubChem BioAssay (NCI)
Several values for one entry are separate records, joined by “and”; a condition that tells them apart may be missing. Equal values may be shown once.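 Following 48 hours of exposure in 96-well plates, responses at five concentrations were used to interpolate endpoints linearly. GI50 = concentration required for 50% inhibition of growth. TGI: concentration producing complete growth inhibition.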

tested on: SN12C renal; experiment: DTP human tumour cell line panel, 48 h

`COc1ccc(/C=C/CN(C)CCc2ccccc2)cc1OC` and `COC(=O)C1Cc2c(n(Cc3ccccc3)c3ccccc23)C(CCC(=O)O)N1C(C)C` (stereo not given) cannot be ordered by TGI: over 100 µM for the first, over 100 µM for the second.

Compared with `O=C1CCCCN1CCCCC#Cc1ccccc1C#Cc1ccc([N+](=O)[O-])cc1`, `O=C(O)CNS(=O)(=O)c1ccc(NCc2ccccc2)cc1` is higher in TGI: 37.3 µM for the first, over 100 µM for the second.

`[Cl-].[Dy+3].[O-]/N=C(\c1ccccc1)c1ccccn1.[O-]/N=C(\c1ccccc1)c1ccccn1.[O-]/N=C(\c1ccccc1)c1ccccn1` and `O=C(c1ccccc1)c1nnc(C(=O)c2ccccc2)nn1` cannot be ordered by TGI: over 100 µM for the first, over 344 µM for the second.

First: NC(=O)C(=O)N/N=C(\CC1(O)C(=O)Nc2ccccc21)c1ccc2ccccc2c1 (stereo not given)
Second: O=C(/C=C/c1c(O)ccc2ccccc12)c1cccc(O)c1
The TGI of the first is lower: 60.5 µM for the first, over 100 µM for the second.

`Cc1cc2c(cc1C)[n+](=O)c(C(=O)C/C(=N/NC(=O)CC#N)C(=O)Nc1ccccc1C(F)(F)F)c(C)n2[O-]` and `COC(=O)/C(=N/NC(=O)C[N+](C)(C)C)C(C(=O)OC)C(=O)C(=O)Nc1ccc(F)cc1` (stereo not given) cannot be ordered by TGI: over 100 µM for the first, over 100 µM for the second.

Going from `Brc1cccc(C=NC23CC4CC(CC(C4)C2)C3)c1` to `Nc1nc(Cl)c2ncn(Cc3ccc(C45CC6CC(CC(C6)C4)C5)c(O)c3)c2n1`, the TGI falls from over 100 µM to 13.4 µM.

Going from `CCC[CH2][Sn]([CH2]CCC)([O]C(=O)c1cccnc1SC)[O]C(=O)c1cccnc1SC` to `CCC[CH2][Sn]1([CH2]CCC)[O]Cc2nc(C)ccc2[O]1`, the TGI rises from 1.92 µM to 23.3 µM (12-fold).

Compared with `CC[C@@]1(O)C(=O)OCc2c1cc1n(c2=O)Cc2c-1nc1cc3c(cc1c2CCl)OCO3`, `O=C1O[C@@H](c2ccc3c(c2)OCO3)C2C(=O)O[C@@H](c3ccc4c(c3)OCO4)C12` (stereo not given in full) is higher in TGI: 0.367 µM for the first, over 100 µM for the second.

`O=C1CCC(=O)N2CCCCN12` and `CC1=NN(C(=O)Nc2ccccc2)C(=O)C2CCC(=O)N12` (stereo not given) cannot be ordered by TGI: over 100 µM for the first, over 100 µM for the second.

`CC(C)C(=O)NC(=S)Nc1ccc([N+](=O)[O-])cc1C#N` and `N#Cc1cc([N+](=O)[O-])ccc1NC(=O)C(=O)Nc1n[nH]c(N)n1` cannot be ordered by TGI: over 100 µM for the first, over 100 µM for the second.

`Oc1ccc(NCc2nc3ccccc3[nH]2)cc1` and `O=c1/c(=C/c2ccco2)sc2nc3ccccc3n12` cannot be ordered by TGI: over 100 µM for the first, over 10 µM for the second.

Going from `O=C1c2cc(Cl)ccc2S(=O)(=O)c2c(NCCCNCCO)nc3ccccc3c21` to `COc1ccc(-c2cc(=O)c3c(OC)c(OC)c(OC)cc3o2)cc1`, the TGI rises from 2.51 µM to 91.1 µM (36-fold).

`CC(C)(C)C1C=C(Sc2ccccc2)C(=O)O1` (stereo not given) and `O=C1CCC2(c3ccc(F)cc3)Nc3cc(Cl)ccc3N12` (stereo not given) cannot be ordered by TGI: over 100 µM for the first, over 100 µM for the second.

In the case of `O=c1[nH]ncc(Br)c1Br`, the TGI is reported as 6.13 µM.

Compared with `O=C1CCCCN1CCCCC#Cc1ccccc1C#Cc1ccc([N+](=O)[O-])cc1`, `Oc1ccc(NCc2nc3ccccc3[nH]2)cc1` is 3.6-fold higher in GI50: 17.1 µM for the first, 61.4 µM for the second.

First: [Cl-].[Dy+3].[O-]/N=C(\c1ccccc1)c1ccccn1.[O-]/N=C(\c1ccccc1)c1ccccn1.[O-]/N=C(\c1ccccc1)c1ccccn1
Second: O=C1c2cc(Cl)ccc2S(=O)(=O)c2c(NCCCNCCO)nc3ccccc3c21
The GI50 of the first is 37-fold higher: 46.4 µM for the first, 1.25 µM for the second.

First: Nc1nc(Cl)c2ncn(Cc3ccc(C45CC6CC(CC(C6)C4)C5)c(O)c3)c2n1
Second: CC[C@@]1(O)C(=O)OCc2c1cc1n(c2=O)Cc2c-1nc1cc3c(cc1c2CCl)OCO3
The GI50 of the first is higher: 2.95 µM for the first, under 0.01 µM for the second.

Going from `CCC[CH2][Sn]([CH2]CCC)([O]C(=O)c1cccnc1SC)[O]C(=O)c1cccnc1SC` to `CCC[CH2][Sn]1([CH2]CCC)[O]Cc2nc(C)ccc2[O]1`, the GI50 rises from 0.62 µM to 11.3 µM (18-fold).

`O=c1[nH]ncc(Br)c1Br` showed a GI50 of 2.34 µM.

tested on: NCI-H23 lung; experiment: DTP human tumour cell line panel, 48 h

Going from `COC(=O)c1c/c(=N\NC(=O)CC(=O)Nc2ccccc2OC)c2ccccc2o1` to `NC(=O)C(=O)N/N=C(\CC1(O)C(=O)Nc2ccccc21)c1ccc2ccccc2c1` (stereo not given), the TGI falls from over 100 µM to 76.7 µM.

`NC(CCC(=O)NC(CSSCCCCS(=O)O)C(=O)NCC(=O)O)C(=O)O` (stereo not given) and `OCC(O)CC[CH2][Sn]([Br])([c]1ccccc1)[c]1ccccc1` (stereo not given) cannot be ordered by TGI: over 100 µM for the first, over 100 µM for the second.

`C[C@@H]1OC(O)[C@@H](F)[C@H](O)[C@@H]1O` (stereo not given in full) and `COC12C=C(C)C(CC1)CC2C(=O)O` (stereo not given) cannot be ordered by TGI: over 100 µM for the first, over 100 µM for the second.

`NC(=O)c1ccc(I)c(N)c1` and `O=c1c2cc([N+](=O)[O-])ccc2sc2ccsc12` cannot be ordered by TGI: over 100 µM for the first, over 100 µM for the second.

`COc1ccc(C2=CC3CCC2C3)cc1` (stereo not given) and `COc1ccc(/C=C/CN(C)CCc2ccccc2)cc1OC` cannot be ordered by TGI: over 100 µM for the first, over 100 µM for the second.

First: O=C1CCCCN1CCCCC#Cc1ccccc1C#Cc1ccc([N+](=O)[O-])cc1
Second: [Cl-].[Dy+3].[O-]/N=C(\c1ccccc1)c1ccccn1.[O-]/N=C(\c1ccccc1)c1ccccn1.[O-]/N=C(\c1ccccc1)c1ccccn1
The TGI of the first is lower: 17.1 µM for the first, over 100 µM for the second.

`C[C@@H]1OC(O)[C@@H](F)[C@H](O)[C@@H]1O` (stereo not given in full) and `OCC(O)CC[CH2][Sn]([Br])([c]1ccccc1)[c]1ccccc1` (stereo not given) cannot be ordered by GI50: over 100 µM for the first, over 100 µM for the second.

Going from `NC(=O)c1ccc(I)c(N)c1` to `CCc1ccc(/C=C\c2cc(OC)c(OC)c(OC)c2)cc1`, the GI50 falls from over 100 µM to 0.039 µM.

Compared with `O=C1CCCCN1CCCCC#Cc1ccccc1C#Cc1ccc([N+](=O)[O-])cc1`, `[Cl-].[Dy+3].[O-]/N=C(\c1ccccc1)c1ccccn1.[O-]/N=C(\c1ccccc1)c1ccccn1.[O-]/N=C(\c1ccccc1)c1ccccn1` is 8.8-fold higher in GI50: 4.23 µM for the first, 37.2 µM for the second.

`CCc1ccc(/C=C\c2cc(OC)c(OC)c(OC)c2)cc1` was tested, and the TGI was 0.338 µM and 0.114 µM.
